{"source": "patent US10533010B2", "about": "“Substituted indole Mcl-1 inhibitors” (Vanderbilt University, priority 2014, dated 2020)", "key": {"[1]": {"target": "Bcl-2 (residues 1-207 A96T,G110R, Δ35-91, replaced with Bcl-xL35-50) (Homo sapiens, UniProt P10415, A37E/DEL42-87/G36T/INS34DVEEN/P40E/P88T/P90S/P91E/V35R/V89E)", "test": "Fluorescence polarization anisotropy competition selectivity assay (FITC-Bak peptide) with Bcl-2", "format": "binding", "settings": "Table 3; 40 nM Bcl-2, 10 nM FITC-Bak", "procedure": "(§1) Compound affinity was measured using a fluorescence polarization anisotropy competition assay. Anisotropy measurements were carried out in 384-well, black, flat-bottom plates (Greiner Bio-one, Monroe, N.C., USA). The assay was run using either a fluorescein isothiocyanate-labeled BH3 peptide derived from Bak (FITC-AHx-[…]-NH2) or a fluorescein isothiocyanate-labeled BH3 peptide derived from Bim (FITC-AHx-[…]-NH2) that were purchased from GenScript (Piscataway, N.J.) at >95% purity and used without further purification. 10 nM FITC-Bak peptide and 15 nM recombinant Mcl-1 (residues 172-327) were added to assay buffer (3 mM dithiothreitol, 50 mM NaCl, 20 mM Tris, pH 7.5). The Bim based assay was run with 1 nM FITC-Bim peptide and 1.5 nM recombinant Mcl-1 (residues 172-327) added to assay buffer (20 mM TRIS pH 7.5, 50 mM NaCl, 3 mM DTT, 0.01% CHAPS). For selectivity assays, 40 nM Bcl-2 (residues 1-207^A96T,G110R, Δ35-91, replaced with Bcl-xL35-50) or 4 nM Bcl-xL (residues 1-209, loop 45-86 deleted) were incubated with 10 nM FITC-Bak in assay buffer.\n(§2) Compounds are diluted in DMSO in a 10-point, 3-fold serial dilution scheme. For the FITC-BAK assay 2.5 uL compound is added to 47.5 μL of assay buffer containing FITC-Bak and protein, for a final DMSO concentration of 5% and a top concentration of 20 μM. […] […]. The plate was mixed and incubated for 90 minutes at room temperature. Anisotropy is measured at excitation wavelength 480 nm and emission wavelength 535 nm using an EnVision Multi-label plate reader (PerkinElmer, Wellesley, Mass., USA) or a BioTek Cytation 3 (BioTek, Winooski, Vt., USA). […] IC50 is converted to a binding dissociation constant (Ki value) according to the formula of Wang Z. FEBS Lett (1996) 3, 245."}, "[2]": {"target": "Bcl-xL (residues 1-209, loop 45-86 deleted) (Homo sapiens (Human), UniProt Q07817, DEL45-86)", "sequence (Q07817 other isoform, or with tags, fused parts or gaps del 45-86)": "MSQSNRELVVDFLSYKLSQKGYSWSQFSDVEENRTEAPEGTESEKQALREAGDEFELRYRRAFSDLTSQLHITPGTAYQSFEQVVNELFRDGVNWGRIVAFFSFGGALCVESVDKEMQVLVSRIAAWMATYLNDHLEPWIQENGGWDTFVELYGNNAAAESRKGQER", "test": "Fluorescence polarization anisotropy competition selectivity assay (FITC-Bak peptide) with Bcl-xL", "format": "binding", "settings": "Table 3; 4 nM Bcl-xL, 10 nM FITC-Bak", "procedure": "as §1, §2"}}, "data": [{"smiles": "Cc1cc(OCCCc2c(C(=O)NCc3cc(C(=O)O)ccn3)[nH]c3c(-c4c(C)nn(C)c4C)cccc23)cc(C)c1Cl", "note": "[I-280, 2-((3-(3-(4-chloro-3,5-dimethylphenoxy)propyl)-7-(1,3,5-trimethyl-1H-pyrazol-4-yl)-1H-indole-2-carboxamido)methyl)isonicotinic acid]", "values": [{"measurement": "Ki", "setting": "[1]", "value": 7.9, "unit": "µM"}, {"measurement": "Ki", "setting": "[2]", "value": 27, "unit": "µM"}]}, {"smiles": "Cc1cc(OCCCc2c3n(c4c(-c5c(C)nn(C)c5C)c(Cl)ccc24)CCCN(Cc2cccc(C(=O)O)c2)C3=O)cc(C)c1Cl", "note": "[I-80, 3-((8-chloro-11-(3-(4-chloro-3,5-dimethylphenoxy)propyl)-1-oxo-7-(1,3,5-trimethyl-1H-pyrazol-4-yl)-4,5-dihydro-1H-[1,4]diazepino[1,2-a]indol-2(3H)-yl)methyl)benzoic acid]", "values": [{"measurement": "Ki", "setting": "[1]", "value": 2.34, "unit": "µM"}, {"measurement": "Ki", "setting": "[2]", "value": 6.75, "unit": "µM"}]}, {"smiles": "Cc1cc(OCCCc2c(C(=O)Nc3cc(C(=O)O)ccn3)[nH]c3c(-c4c(C)nn(C)c4C)c(Cl)ccc23)cc(C)c1Cl", "note": "[I-183, 2-(6-chloro-3-(3-(4-chloro-3,5-dimethylphenoxy)propyl)-7-(1,3,5-trimethyl-1H-pyrazol-4-yl)-1H-indole-2-carboxamido)isonicotinic acid]", "values": [{"measurement": "Ki", "setting": "[1]", "value": 2.9, "unit": "µM"}, {"measurement": "Ki", "setting": "[2]", "value": 14.4, "unit": "µM"}]}, {"smiles": "Cc1cc(OCCCc2c(C(=O)Nc3cccc(C(=O)O)c3)[nH]c3c(-c4c(C)nn(C)c4C)c(Cl)ccc23)cc(C)c1Cl", "note": "[I-39, 3-(6-chloro-3-(3-(4-chloro-3,5-dimethylphenoxy)propyl)-7-(1,3,5-trimethyl-1H-pyrazol-4-yl)-1H-indole-2-carboxamido)benzoic acid]", "values": [{"measurement": "Ki", "setting": "[1]", "value": 1.54, "unit": "µM"}, {"measurement": "Ki", "setting": "[2]", "value": 4.59, "unit": "µM"}]}, {"smiles": "Cc1cc(OCCCc2c(C(=O)NCc3c[nH]c(C(=O)O)c3)[nH]c3c(-c4c(C)nn(C)c4C)cccc23)cc(C)c1Cl", "note": "[I-71, 4-((3-(3-(4-chloro-3,5-dimethylphenoxy)propyl)-7-(1,3,5-trimethyl-1H-pyrazol-4-yl)-1H-indole-2-carboxamido)methyl)-1H-pyrrole-2-carboxylic acid]", "values": [{"measurement": "Ki", "setting": "[1]", "value": 5.95, "unit": "µM"}, {"measurement": "Ki", "setting": "[2]", "value": 13.8, "unit": "µM"}]}, {"smiles": "Cc1cc(OCCCc2c3n(c4c(-c5c(C)nn(C)c5C)cccc24)CCCN(Cc2cccc(C(=O)O)c2)C3=O)cc(C)c1Cl", "note": "[I-32, 3-((11-(3-(4-chloro-3,5-dimethylphenoxy)propyl)-1-oxo-7-(1,3,5-trimethyl-1H-pyrazol-4-yl)-4,5-dihydro-1H-[1,4]diazepino[1,2-a]indol-2(3H)-yl)methyl)benzoic acid]", "values": [{"measurement": "Ki", "setting": "[1]", "value": 3.82, "unit": "µM"}, {"measurement": "Ki", "setting": "[2]", "value": 13.4, "unit": "µM"}]}, {"smiles": "Cc1cc(OCCCc2c(C(=O)Nc3cccc(C(=O)O)c3)n(C)c3c(-c4c(C)nn(C)c4C)c(Cl)ccc23)cc(C)c1Cl", "note": "[I-188, 3-(6-chloro-3-(3-(4-chloro-3,5-dimethylphenoxy)propyl)-1-methyl-7-(1,3,5-trimethyl-1H-pyrazol-4-yl)-1H-indole-2-carboxamido)benzoic acid]", "values": [{"measurement": "Ki", "setting": "[1]", "value": 5.3, "unit": "µM"}, {"measurement": "Ki", "setting": "[2]", "value": 15.6, "unit": "µM"}]}, {"smiles": "Cc1cc(OCCCc2c3n(c4c(-c5c(C)nn(C)c5C)c(Cl)ccc24)CCCN(c2cccc(C(=O)O)c2)C3=O)cc(C)c1Cl", "note": "[I-177, 3-(8-chloro-11-(3-(4-chloro-3,5-dimethylphenoxy)propyl)-1-oxo-7-(1,3,5-trimethyl-1H-pyrazol-4-yl)-4,5-dihydro-1H-[1,4]diazepino[1,2-a]indol-2(3H)-yl)benzoic acid]", "values": [{"measurement": "Ki", "setting": "[1]", "value": 1.9, "unit": "µM"}]}, {"smiles": "Cc1cc(OCCCc2c(C(=O)Nc3cncc(C(=O)O)c3)[nH]c3c(-c4c(C)nn(C)c4C)c(Cl)ccc23)cc(C)c1Cl", "note": "[I-181, 5-(6-chloro-3-(3-(4-chloro-3,5-dimethylphenoxy)propyl)-7-(1,3,5-trimethyl-1H-pyrazol-4-yl)-1H-indole-2-carboxamido)nicotinic acid]", "values": [{"measurement": "Ki", "setting": "[1]", "value": 3.2, "unit": "µM"}, {"measurement": "Ki", "setting": "[2]", "value": 61.5, "unit": "µM"}]}]}
